Experimental data reported in US20070213310A1, “Prodrugs for Use as Ophthalmic Agents” (priority 2002, published 2007).
Entries after “also recorded” stand apart in the source; their conditions may differ. Where two headings read alike, the source gives them in different places.

Experiments:
[1] = logP measured by the shake-flask method; type: physicochemical
[2] = Lipid peroxidation inhibition, ferric thiocyanate (FTC) method; type: biochemical; conditions: inhibition of lipid peroxidation
Excerpt: (§1) Because lipid peroxidation (LPO) is a common marker of damage induced by reactive oxygen species (ROS) (Gutteridge JMC, “Lipid-peroxidation and antioxidants as biomarkers of tissue-damage,” Clin Chem, 41: 1819-1828 (1995); Kaur and Geetha, “Screening methods for antioxidants—A review,” Mini-Rev Med Chem, 6: 305-312 (2006)), two assays were employed to measure capacity to inhibit LPO: the ferric thiocyanate (FTC) and the thiobarbituric acid reactive substances (TBARS) methods. With these assays, the autoxidation of linoleic acid (a lipid model) is measured in the absence and, then, presence of different concentration of antioxidants. […] During the oxidation process, peroxide is gradually decomposed to lower molecular-weight compounds such as malondialdehyde (MDA) that is measured by the TBARS method (Kikuzaki and Nakatani, J Food Sci, 58: 1407-1410 (1993)). […]
(§2) The TBARS assay is a widely adopted and sensitive method for measurement of lipid peroxidation (Callaway J K, Beart P M and Jarrott B. “A reliable procedure for comparison of antioxidants in rat brain homogenates.” J Pharmacol Toxicol Meth, 39: 155-162 (1998)). […] The MDA-TBA complex measured by the TBARs assay is a gauge of LOOH formation (Janero D R. “Malondialdehyde and thiobarbituric acid-reactivity as diagnostic indices of lipid peroxidation and peroxidative tissue injury.” Free Rad Biol Med, 9: 515-540 (1990)). […]

[3] = Lipid peroxidation inhibition, thiobarbituric acid reactive substances (TBARS) method; type: biochemical; conditions: inhibition of lipid peroxidation
Excerpt: as §1, §2

[4] = tested on: Human retinal ganglial cells (RGC); assay: Viability of retinal ganglial cells (RGC) incubated with glutamate; type: cell-based; conditions: for effect on RGC viability, compound alone: without glutamate; for RGC killed by glutamate in the presence of the compound: glutamate 5 mM plus compound (three concentrations)
Protocol: Human retinal ganglial cells (RGC) were incubated with glutamate (5 mM), the estrogen analogue 3,17-dihydroxyestra-1,3,5(10),9(11)-tetraene (ZYC1) or combination of glutamate and various concentrations of ZYC1.
RGC were treated with glutamate (5 mM) in the presence or absence of ZYC1.

[5] = 37° C.
Protocol: By way of example, conversion of Formula II by NAD(P)H as an endogenous reducing agent was tested. […] At incremental time points, 100 μl aliquots were removed into ice-cold centrifuge tubes, and 100 μl of glacial acetic acid was added. After immediate extraction with ethyl acetate, the organic layer was evaporated under nitrogen stream. […] For the control experiment, no reducing agent was used.
Liquid chromatography separation was done using a Supelco (Bellfonte, Pa.) 5 cm×2.1 mm i.d. Discovery HS C-18 reversed-phase column with 0.25 ml/min water:methanol:2-propanol:acetic acid:dichloromethane (53:35:5:5:2, v/v) as a mobile phase. The sample residues were dissolved in 40 μl of mobile phase, respectively, and 5 μl of the solution was injected for analysis. Mass spectra were recorded on a quadruple ion-trap instrument (LCQ®, ThermoFinnigan, San Jose, Calif.) using positive-ion atmospheric-pressure chemical ionization (APCI) as the method of ionization. MS/MS and MS^3 product-ion scans were obtained after collision-induced dissociation (CID) with helium as the target gas. […] As an internal standard, 1,3,5(10)-estratrien-17α-ethynyl-17β-ol was added before each sample extraction.

C[C@]12CC[C@H]3[C@@H](CCC4=CC(=O)C(C56CC7CC(CC(C7)C5)C6)=C[C@@]43O)[C@@H]1CC[C@@H]2O [2-(1-adamantyl)-10β,17β-dihydroxyestra-1,4-dien-3-one]
logP ([1]; n-octanol/water, shake-flask, read-out: logPexp): 3.26

C[C@]12CC[C@@H]3c4cc(C56CC7CC(CC(C7)C5)C6)c(O)cc4CC[C@H]3[C@@H]1CC[C@@H]2O [2-(1-adamantyl)-estra-1,3,5(10)-triene-3,17β-diol]
IC50 [2]: 1.5 ± 0.1 µM
IC50 [3]: 0.75 ± 0.11 µM
logP [1]: 6.51

C[C@]12CC[C@@H]3c4ccc(O)cc4C[C@@H](CCCCCCCCC[S+]([O-])CCCC(F)(F)C(F)(F)F)[C@H]3[C@@H]1CC[C@@H]2O (some centres unmarked) [IC1182,780, reference compound]
antagonism of ZYC1 protection of RGC ([4]; glutamate 5 mM, ZYC1 plus various concentrations of estrogen receptor antagonist): little antagonism

C[C@]12CC=C3c4ccc(O)cc4CC[C@H]3[C@@H]1CCC2O (some centres unmarked) [ZYC1, 3,17-dihydroxyestra-1,3,5(10),9(11)-tetraene]
effect on RGC viability, compound alone [4]: no effect
RGC killed by glutamate in the presence of the compound [4]: killed significantly fewer cells; also recorded: reduced the number of RGC killed by glutamate

C[C@]12CC[C@@H]3c4cc(C56CC7CC(CC(C7)C5)C6)c(O)cc4CC[C@H]3[C@@H]1CCC2=O [ZYC3, 2-(1-adamantyl)-3-hydroxyestra-1,3,5(10)-trien-17-one]
effect on RGC viability, compound alone [4]: no affect
RGC killed by glutamate in the presence of the compound [4]: killed significantly fewer cells
IC50 [2]: 5.3 ± 1.2 µM
IC50 [3]: 5.8 ± 1.3 µM

C[C@]12CC[C@H]3[C@@H](CCC4=CC(=O)C=C[C@@]43O)[C@@H]1CCC2=O [estrone quinol, 10β-hydroxyestra-1,4-diene-3,17-dione]
rate of conversion ([5]; 10-fold excess NADPH, 0.1 mM quinol, 0.1M sodium phosphate buffer pH 7.5): 6e-07 ± 4e-08 M/min
formation of estrone ([5]; incubation with NADH or NADPH, pH 7.5): clearly detectable

N[C@@H](CCC(=O)O)C(=O)O [glutamate, reference compound]
RGC killed by glutamate ([4]; glutamate 5 mM alone): about 70%
